This note sets out measurements from US20240166652A1, “MODULATORS OF THE INTEGRATED STRESS PATHWAY” (Calico Life Sciences LLC, priority 2017, published 2024).

As usually defined, the EC50 is the concentration that produces a half-maximal response.

For the test, the system named is ATF4 luciferase reporter in HEK293T cells. In words: ATF4-Luc assay (ATF4 luciferase reporter, tunicamycin-treated HEK293T cells). In kind it is cell-based, human. The conditions noted are these: Homo sapiens, HEK-293T; HEK293T cells carrying the ATF4 luciferase reporter, 1 μg/mL tunicamycin, 7 hours.
As for `O=C(COc1ccc(Cl)c(Cl)c1)NC12CCC(NC(=O)COc3ccc(Cl)c(F)c3)(CC1)[C@@H](O)C2` [Compound 438, 2-(4-chloro-3-fluorophenoxy)-N-{(2S)-4-[2-(3,4-dichlorophenoxy)acetamido]-2-hydroxybicyclo[2.2.2]octan-1-yl}acetamide], the EC50 is under 10 nM. On to `Cc1cc(OC(C)(C)C(=O)NC23CCC(NC(=O)COc4ccc(Cl)c(F)c4)(CC2)C[C@@H]3O)ccc1Cl` [Compound 439, N-{(2S)-4-[2-(4-chloro-3-fluorophenoxy)acetamido]-2-hydroxybicyclo[2.2.2]octan-1-yl}-2-(4-chloro-3-methylphenoxy)-2-methylpropanamide], for which the concentration for a half-maximal effect (EC50) is under 10 nM. On to `O=C(COc1ccc(Cl)c(F)c1)NC12CCC(NC(=O)COc3ccc(Cl)c(F)c3)(CC1)C2` [Compound 440, N,N′-(bicyclo[2.2.1]heptane-1,4-diyl)bis[2-(4-chloro-3-fluorophenoxy)acetamide]], for which the EC50 is under 10 nM. For `NC(=O)C1CC2(NC(=O)COc3ccc(Cl)c(F)c3)CCC1(NC(=O)COc1ccc(Cl)c(F)c1)CC2` (stereo not shown) [Compound 441, 1,4-bis[2-(4-chloro-3-fluorophenoxy)acetamido]bicyclo[2.2.2]octane-2-carboxamide], the concentration giving a half-maximal response (EC50) is 10 to 50 nM. Regarding `Cc1ccc(OCC(=O)NC23CCC(NC(=O)COc4ccc(C)cc4)(CC2)[C@@H](O)C3)cc1` [Compound 442, N,N′-[(2S)-2-hydroxybicyclo[2.2.2]octane-1,4-diyl]bis[2-(4-methylphenoxy)acetamide]], the EC50 was under 10 nM. With `Cc1ccc(OCC(=O)NC23CCC(NC(=O)COc4ccc(C)c(C)c4)(CC2)[C@@H](O)C3)cc1C` [Compound 443, N,N′-[(2S)-2-hydroxybicyclo[2.2.2]octane-1,4-diyl]bis[2-(3,4-dimethylphenoxy)acetamide]], the EC50 is under 10 nM.

Regarding `CN(C(=O)COc1ccc(Cl)c(F)c1)C12CCC(NC(=O)COc3ccc(Cl)c(F)c3)(CC1)[C@@H](O)C2` [Compound 444, 2-(4-chloro-3-fluorophenoxy)-N-{(3S)-4-[2-(4-chloro-3-fluorophenoxy)acetamido]-3-hydroxybicyclo[2.2.2]octan-1-yl}-N-methylacetamide], the 50% effective concentration (EC50) was in the range of 10 to 50 nM. In the case of `CC(=O)O[C@H]1CC2(NC(=O)COc3ccc(Cl)c(F)c3)CCC1(NC(=O)COc1ccc(Cl)c(F)c1)CC2` [Compound 445, (2S)-1,4-bis[2-(4-chloro-3-fluorophenoxy)acetamido]bicyclo[2.2.2]octan-2-yl acetate], the concentration for a half-maximal effect (EC50) is under 10 nM. With `O=C(COc1ccc(Cl)c(F)c1)NC12CC(NC(=O)Cc3ccccc3)(C1)C2` [Compound 446, 2-(4-chloro-3-fluorophenoxy)-N-[3-(2-phenylacetamido)bicyclo[1.1.1]pentan-1-yl]acetamide], the EC50 is over 2000 nM. As for `O=C(COc1ccc(Cl)c(Cl)c1)NC12CC(NC(=O)Cc3ccccn3)(C1)C2` [Compound 447, 2-(3,4-dichlorophenoxy)-N-{3-[2-(pyridin-2-yl)acetamido]bicyclo[1.1.1]pentan-1-yl}acetamide], the EC50 was over 2000 nM. The same measure for `O=C(COc1ccc(Cl)c(F)c1)NC12CC(NC(=O)Cc3ccccn3)(C1)C2` [Compound 448, 2-(4-chloro-3-fluorophenoxy)-N-{3-[2-(pyridin-2-yl)acetamido]bicyclo[1.1.1]pentan-1-yl}acetamide]: over 2000 nM; for `CC(=O)O[C@@H]1CC2(NCCOc3ccc(Cl)c(F)c3)CCC1(NC(=O)COc1ccc(Cl)c(F)c1)CC2` [Compound 450, (2R)-1-[2-(4-chloro-3-fluorophenoxy)acetamido]-4-{[2-(4-chloro-3-fluorophenoxy)ethyl]amino}bicyclo[2.2.2]octan-2-yl acetate]: 10 to 50 nM. `O=C(COc1ccc(Cl)c(Cl)c1)NC12CC(NC(=O)NCc3cccc(F)c3)(C1)C2` [Compound 451, 2-(3,4-dichlorophenoxy)-N-[3-({[(3-fluorophenyl)methyl]carbamoyl}amino)bicyclo[1.1.1]pentan-1-yl]acetamide]: the EC50 was over 2000 nM. In the case of `O=C(COc1ccc(Cl)c(F)c1)NC12CCC(NC(=O)COc3ccc(Cl)c(Cl)c3)(CC1)[C@@H](O)C2` [Compound 452, 2-(4-chloro-3-fluorophenoxy)-N-{(3S)-4-[2-(3,4-dichlorophenoxy)acetamido]-3-hydroxybicyclo[2.2.2]octan-1-yl}acetamide], the EC50 is under 10 nM.

For the compound `CC(C)(Oc1ccc(Cl)cc1)C(=O)NC12CCC(NC(=O)COc3ccc(Cl)c(F)c3)(CC1)C[C@@H]2O` [Compound 453, N-{(2S)-4-[2-(4-chloro-3-fluorophenoxy)acetamido]-2-hydroxybicyclo[2.2.2]octan-1-yl}-2-(4-chlorophenoxy)-2-methylpropanamide], the concentration giving a half-maximal response (EC50) lay within 10 to 50 nM.

For `O=C(COc1ccc(Cl)c(F)c1)NC12CCC(NC(=O)COc3ccc(Cl)cc3)(CC1)[C@@H](O)C2` [Compound 454, 2-(4-chloro-3-fluorophenoxy)-N-{(3S)-4-[2-(4-chlorophenoxy)acetamido]-3-hydroxybicyclo[2.2.2]octan-1-yl}acetamide], the 50% effective concentration (EC50) is under 10 nM. The same measure for `COc1ccc(OC)c(CCC(=O)NC23CC(NC(=O)COc4ccc(Cl)c(F)c4)(C2)C3)c1` [Compound 455, N-{3-[2-(4-chloro-3-fluorophenoxy)acetamido]bicyclo[1.1.1]pentan-1-yl}-3-(2,5-dimethoxyphenyl)propanamide]: over 2000 nM; for `Cc1ccc(OCC(=O)NC23CC(NC(=O)COc4ccc(Cl)c(F)c4)(C2)C3)cc1C` [Compound 456, 2-(4-chloro-3-fluorophenoxy)-N-{3-[2-(3,4-dimethylphenoxy)acetamido]bicyclo[1.1.1]pentan-1-yl}acetamide]: under 10 nM; for `O=C(COc1ccc(Cl)c(F)c1)NC12CC(NC(=O)Cc3cccc(C(F)(F)F)c3)(C1)C2` [Compound 457, 2-(4-chloro-3-fluorophenoxy)-N-(3-{2-[3-(trifluoromethyl)phenyl]acetamido}bicyclo[1.1.1]pentan-1-yl)acetamide]: over 2000 nM. For `O=C(COc1ccc(Cl)c(F)c1)NC12CC(NC(=O)Cc3cccnc3)(C1)C2` [Compound 458, 2-(4-chloro-3-fluorophenoxy)-N-{3-[2-(pyridin-3-yl)acetamido]bicyclo[1.1.1]pentan-1-yl}acetamide], the EC50 was over 2000 nM. Consider `O=C(COc1ccc(Cl)c(F)c1)NC12CC(NC(=O)Cc3ccncc3)(C1)C2` [Compound 459, 2-(4-chloro-3-fluorophenoxy)-N-{3-[2-(pyridin-4-yl)acetamido]bicyclo[1.1.1]pentan-1-yl}acetamide], for which the EC50 was over 2000 nM. Take `Cc1ccc(OCC(=O)NC23CC(NC(=O)COc4ccc(Cl)c(F)c4)(C2)C3)cc1` [Compound 460, 2-(4-chloro-3-fluorophenoxy)-N-{3-[2-(4-methylphenoxy)acetamido]bicyclo[1.1.1]pentan-1-yl}acetamide]: the half-maximal effective concentration (EC50) lay in the range of 10 to 50 nM. `COc1cccc(CCC(=O)NC23CC(NC(=O)COc4ccc(Cl)c(F)c4)(C2)C3)c1` [Compound 461, N-{3-[2-(4-chloro-3-fluorophenoxy)acetamido]bicyclo[1.1.1]pentan-1-yl}-3-(3-methoxyphenyl)propanamide]: the EC50 is over 2000 nM. `O=C(COc1ccc(Cl)c(F)c1)NC12CC(NC(=O)[C@H](O)CCc3ccccc3)(C1)C2` [Compound 462, (2R)-N-{3-[2-(4-chloro-3-fluorophenoxy)acetamido]bicyclo[1.1.1]pentan-1-yl}-2-hydroxy-4-phenylbutanamide]: the concentration for a half-maximal effect (EC50) is over 2000 nM.

Take `CCc1cc(C)cc(OCC(=O)NC23CCC(NC(=O)COc4ccc(Cl)c(F)c4)(CC2)[C@@H](O)C3)c1` [Compound 463, 2-(4-chloro-3-fluorophenoxy)-N-{(2S)-4-[2-(3-ethyl-5-methylphenoxy)acetamido]-2-hydroxybicyclo[2.2.2]octan-1-yl}acetamide]: the EC50 is over 2000 nM. To `CCOc1ccc(OCC(=O)NC23CCC(NC(=O)COc4ccc(Cl)c(F)c4)(CC2)[C@@H](O)C3)cc1` [Compound 464, 2-(4-chloro-3-fluorophenoxy)-N-{(2S)-4-[2-(4-ethoxyphenoxy)acetamido]-2-hydroxybicyclo[2.2.2]octan-1-yl}acetamide] belongs 10 to 50 nM. Consider `COc1cc(OCC(=O)NC23CCC(NC(=O)COc4ccc(Cl)c(F)c4)(CC2)[C@@H](O)C3)ccc1Cl` [Compound 465, 2-(4-chloro-3-fluorophenoxy)-N-{(2S)-4-[2-(4-chloro-3-methoxyphenoxy)acetamido]-2-hydroxybicyclo[2.2.2]octan-1-yl}acetamide], for which the concentration for a half-maximal effect (EC50) is under 10 nM.

On to `O=C(COc1cccc(C(F)(F)F)c1)NC12CCC(NC(=O)COc3ccc(Cl)c(F)c3)(CC1)[C@@H](O)C2` [Compound 466, 2-(4-chloro-3-fluorophenoxy)-N-[(2S)-2-hydroxy-4-{2-[3-(trifluoromethyl)phenoxy]acetamido}bicyclo[2.2.2]octan-1-yl]acetamide], for which the EC50 was under 10 nM.

Consider `Cc1cccc(OCC(=O)NC23CCC(NC(=O)COc4ccc(Cl)c(F)c4)(CC2)[C@@H](O)C3)c1` [Compound 467, 2-(4-chloro-3-fluorophenoxy)-N-{(2S)-2-hydroxy-4-[2-(3-methylphenoxy)acetamido]bicyclo[2.2.2]octan-1-yl}acetamide], for which the concentration giving a half-maximal response (EC50) was under 10 nM. For `O=C(COc1ccc(C(F)(F)F)cc1)NC12CCC(NC(=O)COc3ccc(Cl)c(F)c3)(CC1)[C@@H](O)C2` [Compound 468, 2-(4-chloro-3-fluorophenoxy)-N-[(2S)-2-hydroxy-4-{2-[4-(trifluoromethyl)phenoxy]acetamido}bicyclo[2.2.2]octan-1-yl]acetamide], the EC50 is under 10 nM. For `Cc1cc(OCC(=O)NC23CCC(NC(=O)COc4ccc(Cl)c(F)c4)(CC2)[C@@H](O)C3)cc(C)c1C` [Compound 469, 2-(4-chloro-3-fluorophenoxy)-N-{(2S)-2-hydroxy-4-[2-(3,4,5-trimethylphenoxy)acetamido]bicyclo[2.2.2]octan-1-yl}acetamide], the EC50 was over 2000 nM.
